Laboratory results reported in patent US20230135100A1, “PROCESS OF PREPARING A PEPTIDE EPOXYKETONE IMMUNOPROTEASOME INHIBITOR, AND PRECURSORS THEREOF” (KEZAR LIFE SCIENCES, priority 2016, published 2023).
Values joined by “and” are separate entries in the source; they are usually repeats but may differ in a detail not shown here. Identical values can stand only once. Counter-ions that a name gives are not always drawn. Like-named read-outs stand apart in the source and are kept apart here.

Details: 25° C., relative humidity 40%

SMILES | % Decomposition (1 day) | % Purity at Indicated Time (days) (1 day) | % Purity at Indicated Time (days) (90 days)
C[C@]1(C(=O)[C@@H](N)CC2=CCCC2)CO1 [Trifluoroacetate, (S)-3-(cyclopent-1-en-1-yl)-1-((R)-2-methyloxiran-2-yl)-1-oxopropan-2-aminium salt] | 5.7% and 8.8% | 79.6 (1) % and 86.0 (1) % | –
C[C@]1(C(=O)[C@@H](N)CC2=CCCC2)CO1 [Tosylate, (S)-3-(cyclopent-1-en-1-yl)-1-((R)-2-methyloxiran-2-yl)-1-oxopropan-2-aminium salt] | – | – | 96.0 (90) % and 85.0 (90) %
